Values after ≈ are worked out from the molar mass of the structure shown.
How the values were obtained:
Assay type in all cases: functional
[1] = tested on: Escherichia coli; assay: Antibacterial activity against Escherichia coli ATCC 25922
[2] = tested on: Staphylococcus aureus; assay: Antibacterial activity against Staphylococcus aureus ATCC 13709
[3] = tested on: Escherichia coli; assay: Antibacterial activity against Escherichia coli 0157:H07
[4] = tested on: Escherichia coli; assay: Antibacterial activity against vancomycin-, ciprofloxacin-, gentamicin-sensitive Escherichia coli 1269640
[5] = tested on: Escherichia coli; assay: Antibacterial activity against vancomycin-, ciprofloxacin-, gentamicin-resistant Escherichia coli 1269620
[6] = tested on: Escherichia coli; assay: Antibacterial activity against vancomycin-, ciprofloxacin-, gentamicin-resistant Escherichia coli 1269621
[7] = tested on: Escherichia coli; assay: Antibacterial activity against vancomycin-, ciprofloxacin-, gentamicin-resistant Escherichia coli 1269652
[8] = tested on: Escherichia coli; assay: Antibacterial activity against vancomycin-, ciprofloxacin-, gentamicin-resistant Escherichia coli 1269653
[9] = tested on: Staphylococcus aureus; assay: Antibacterial activity against Staphylococcus aureus ATCC […]
[10] = tested on: Staphylococcus aureus; assay: Antibacterial activity against vancomycin-, ciprofloxacin-, gentamicin-resistant Staphylococcus aureus 1269615
[11] = tested on: Staphylococcus aureus; assay: Antibacterial activity against vancomycin-intermediate and ciprofloxacin-, gentamicin-resistant Staphylococcus aureus 1269616
[12] = tested on: Staphylococcus aureus; assay: Antibacterial activity against vancomycin-, ciprofloxacin-, gentamicin-resistant Staphylococcus aureus 1269617
[13] = tested on: Staphylococcus aureus; assay: Antibacterial activity against vancomycin-intermediate and ciprofloxacin-, gentamicin-resistant Staphylococcus aureus 1269618
[14] = tested on: Staphylococcus aureus; assay: Antibacterial activity against vancomycin-sensitive and oxymycin-, ciprofloxacin-, gentamicin-resistant Staphylococcus aureus 9269619
[15] = tested on: Staphylococcus aureus; assay: Antibacterial activity against oxymycin-sensitive Staphylococcus aureus 1269669
[16] = tested on: Staphylococcus aureus; assay: Antibacterial activity against oxymycin-sensitive Staphylococcus aureus 1269670
[17] = tested on: Staphylococcus capitis; assay: Antibacterial activity against Staphylococcus capitis 1269682
[18] = tested on: Staphylococcus epidermidis; assay: Antibacterial activity against Staphylococcus epidermidis 1269663
[19] = tested on: Staphylococcus epidermidis; assay: Antibacterial activity against oxymycin-, gentamicin-, levofloxacin-resistant Staphylococcus epidermidis 1269675
[20] = tested on: Staphylococcus epidermidis; assay: Antibacterial activity against oxymycin-, gentamicin-, levofloxacin-resistant Staphylococcus epidermidis 1269676
[21] = tested on: Staphylococcus epidermidis; assay: Antibacterial activity against oxymycin and gentamicin-resistant Staphylococcus epidermidis 1269677
[22] = tested on: Staphylococcus epidermidis; assay: Antibacterial activity against oxymycin-, gentamicin-, levofloxacin-resistant Staphylococcus epidermidis 1269680
[23] = tested on: Staphylococcus warneri; assay: Antibacterial activity against Staphylococcus warneri 1269686

SMILES	MIC [1] [mg/L]	MIC [2] [mg/L]	MIC [3] [mg/L]	MIC [4] [mg/L]	MIC [5] [mg/L]	MIC [6] [mg/L]	MIC [7] [mg/L]	MIC [8] [mg/L]	MIC [9] [mg/L]	MIC [10] [mg/L]	MIC [11] [mg/L]	MIC [12] [mg/L]	MIC [13] [mg/L]	MIC [14] [mg/L]	MIC [15] [mg/L]	MIC [16] [mg/L]	MIC [17] [mg/L]	MIC [18] [mg/L]	MIC [19] [mg/L]	MIC [20] [mg/L]	further results
NCC[C@H](O)C(=O)N[C@@H]1C[C@H](N)[C@@H](O[C@H]2O[C@H](CO)CC[C@H]2N)[C@H](O[C@@H]2O[C@H](CO)[C@@H](O[C@H]3O[C@@H](CN)[C@@H](O)[C@H](O)[C@H]3N)[C@H]2OCCNCCc2ccccc2)[C@H]1O	8 (≈ 9.62 µM)	0.6 (≈ 0.721 µM)	1 (≈ 1.2 µM)	8 (≈ 9.62 µM)	4 (≈ 4.81 µM)	4 (≈ 4.81 µM)	16 (≈ 19.2 µM)	8 (≈ 9.62 µM)	> 0.12	0.25 (≈ 0.3 µM)	0.5 (≈ 0.601 µM)	0.25 (≈ 0.3 µM)	0.5 (≈ 0.601 µM)	1 (≈ 1.2 µM)	0.25 (≈ 0.3 µM)	0.25 (≈ 0.3 µM)	< 0.12	< 0.12	< 0.12	< 0.12	MIC [21]: < 0.12 mg/L; MIC [22]: < 0.12 mg/L; MIC [23]: < 0.12 mg/L
NC[C@@H]1O[C@H](O[C@H]2[C@@H](OCCNCCc3ccccc3)[C@H](O[C@@H]3[C@@H](O)[C@H](N)C[C@H](N)[C@H]3O[C@H]3O[C@H](CO)[C@@H](O)[C@H](O)[C@H]3N)O[C@@H]2CO)[C@H](N)[C@@H](O)[C@@H]1O	3 (≈ 3.93 µM)	0.3 (≈ 0.393 µM)																			
NCC[C@H](O)C(=O)N[C@@H]1C[C@H](N)[C@@H](O[C@H]2O[C@H](CN)[C@@H](O)[C@H](O)[C@H]2O)[C@H](O)[C@H]1O[C@H]1O[C@H](CO)[C@@H](O)[C@H](N)[C@H]1O [AMIKACIN]	2 (≈ 3.42 µM)		1 (≈ 1.71 µM)	8 (≈ 13.7 µM)	2 (≈ 3.42 µM)	2 (≈ 3.42 µM)	64 (≈ 109 µM)	8 (≈ 13.7 µM)	2 (≈ 3.42 µM)	16 (≈ 27.3 µM)	16 (≈ 27.3 µM)	8 (≈ 13.7 µM)	16 (≈ 27.3 µM)	16 (≈ 27.3 µM)	2 (≈ 3.42 µM)	1 (≈ 1.71 µM)	0.5 (≈ 0.854 µM)	0.8 (≈ 1.37 µM)	8 (≈ 13.7 µM)	4 (≈ 6.83 µM)	MIC [21]: 4 mg/L (≈ 6.83 µM); MIC [22]: 8 mg/L (≈ 13.7 µM); MIC [23]: < 0.25 mg/L
NC[C@@H]1O[C@H](O[C@H]2[C@@H](O)[C@H](O[C@@H]3[C@@H](O)[C@H](N)C[C@H](N)[C@H]3O[C@H]3O[C@H](CN)[C@@H](O)[C@H](O)[C@H]3N)O[C@@H]2CO)[C@H](N)[C@@H](O)[C@@H]1O [FRAMYCETIN]	3 (≈ 4.88 µM)	1 (≈ 1.63 µM)																			
CN[C@@H]1[C@@H](O)[C@@H](O[C@@H]2[C@@H](O)[C@H](O[C@H]3O[C@H]([C@@H](C)NC)CC[C@H]3N)[C@@H](N)C[C@H]2N)OC[C@]1(C)O [GENTAMICIN C1]	1 (≈ 2.09 µM)		0.5 (≈ 1.05 µM)	4 (≈ 8.38 µM)	64 (≈ 134 µM)	64 (≈ 134 µM)	> 128	> 128	0.5 (≈ 1.05 µM)	32 (≈ 67 µM)	64 (≈ 134 µM)	32 (≈ 67 µM)	64 (≈ 134 µM)	128 (≈ 268 µM)	0.25 (≈ 0.523 µM)	0.25 (≈ 0.523 µM)	0.12 (≈ 0.251 µM)	< 0.12	32 (≈ 67 µM)	32 (≈ 67 µM)	MIC [21]: 16 mg/L (≈ 33.5 µM); MIC [22]: 64 mg/L (≈ 134 µM); MIC [23]: < 0.12 mg/L
NC[C@@H]1O[C@H](O[C@H]2[C@@H](O)[C@H](O[C@@H]3[C@@H](O)[C@H](N)C[C@H](N)[C@H]3O[C@H]3O[C@H](CO)[C@@H](O)[C@H](O)[C@H]3N)O[C@@H]2CO)[C@H](N)[C@@H](O)[C@@H]1O [PAROMOMYCIN]	3 (≈ 4.87 µM)	1 (≈ 1.62 µM)																			

From ChEMBL document CHEMBL1287692, “Structure-based design, synthesis and A-site rRNA co-crystal complexes of novel amphiphilic aminoglycoside antibiotics with new binding modes: a synergistic hydrophobic effect against resistant bacteria” (2010)
